For 14 compounds, IC50 results are on record in US10821115B2, “Compounds that inhibit Mcl-1 protein” (priority 2017, dated 2020).

Molecules are shown by their SMILES. Like-named read-outs stand apart in the source and are kept apart here.

In experiment [1] the target is recombinant human Mcl-1 (residues 171-327) / Bim interaction (Homo sapiens (Human), UniProt Q07820). Nature of the experiment: biochemical. In kind it is binding. Conditions: read-out: Mcl-1 HTRF IC50. (In general: In TR-FRET formats the signal depends on donor and acceptor labels being close together.)
Chain of recombinant human Mcl-1 (residues 171-327) / Bim interaction (Q07820 171-327): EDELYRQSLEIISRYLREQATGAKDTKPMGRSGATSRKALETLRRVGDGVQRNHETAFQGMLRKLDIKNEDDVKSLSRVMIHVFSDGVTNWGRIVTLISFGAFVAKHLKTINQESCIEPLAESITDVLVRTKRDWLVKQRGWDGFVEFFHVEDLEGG
Experiment [2] deals with human multiple myeloma cell line, OPM-2. The experiment in a line: Cell viability assay (OPM-2 10 FBS), CellTiter-Glo. In kind it is cell-based. The method, boiled down:
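Steps: plate cells at 3000/well in 10% FBS growth medium, add serially diluted compound, incubate 16 h at 37 °C with 5% CO2, add detection reagent and read luminescence after 25 min. A 4-parameter logistic model gives IC50.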
For orientation: ATP-based viability assays read luminescence as a measure of living cells.

Setting [3] is: 0.1 nM Mcl-1(171-327), 0.05 nM biotin-Bim (51-76).
The mark [4] stands for this setting: Homo sapiens, OPM-2, 16 h, read-out: OPM-2 10% FBS IC50 IP, OPM-2 cells, 10% FBS, 16 h incubation.
[5] abbreviates: TR-FRET, Mcl-1(171-327) / biotin-Bim (51-76).
Setting [6] is: Homo sapiens, OPM-2, 16 h, read-out: OPM-2 10% FBS IC50 IP, OPM-2 cells, 10% FBS, 16 h, CellTiter-Glo.

The IC50 is the concentration that inhibits the measured activity by half. For the compound `CCO[C@]1(CN2CCN(C3COC3)CC2)/C=C/[C@H](C)[C@H](C)CS(=O)(=O)NC(=O)c2ccc3c(c2)N(C[C@@H]2CC[C@H]21)C[C@@]1(CCCc2cc(Cl)ccc21)CO3` [Example 166, (1S,3′R,6′R,7′R,8′E,10′S,11′S)-6-chloro-7′-ethoxy-10′,11′-dimethyl-7′-((4-(3-oxetanyl)-1-piperazinyl)methyl)-3,4-dihydro-2H,15′H-spiro[naphthalene-1,22′-[20]oxa[13]thia[1,14]diazatetracyclo [14.7.2.0~3,6~.0~19,24~]pentacosa[8,16,18,24]tetraen]-15′-one 13′,13′-dioxide], the results for the IC50 in experiment [1] (setting [3]) and in experiment [2] (setting [4]) were 0.107 nM and 50 nM, respectively. The matching figures for `COCC[C@@H]1[C@@H](C)C/C=C/[C@@](CN2CCN(C)CC2)(OC)[C@@H]2CC[C@H]2CN2C[C@@]3(CCCc4cc(Cl)ccc43)COc3ccc(cc32)C(=O)NS1(=O)=O` [Example 178, (1S,3′R,6′R,7′R,8′E,11′S,12′R)-6-chloro-7′-methoxy-12′-(2-methoxyethyl)-11′-methyl-7′-((4-methyl-1-piperazinyl)methyl)-3,4-dihydro-2H,15′H-spiro[naphthalene-1,22′-[20]oxa[13]thia[1,14]diazatetracyclo [14.7.2.0~3,6~.0~19,24~]pentacosa[8,16,18,24]tetraen]-15′-one 13′,13′-dioxide]: 0.177 nM and 71 nM. The matching figures for `CO[C@@]1(CN2CCC2)/C=C/C[C@H](C)[C@@H](C)S(=O)(=O)NC(=O)c2ccc3c(c2)N(C[C@@H]2CC[C@H]21)C[C@@]1(CCCc2cc(Cl)ccc21)CO3` [Example 77, (1S,3′R,6′R,7′S,8′E,11′S,12′R)-7′-(1-azetidinylmethyl)-6-chloro-7′-methoxy-11′,12′-dimethyl-3,4-dihydro-2H,15′H-spiro[naphthalene-1,22′-[20]oxa[13]thia[1,14]diazatetracyclo [14.7.2.0~3,6~.0~19,24~]pentacosa[8,16,18,24]tetraen]-15′-one 13′,13′-dioxide]: 1.22 nM and 415 nM.

As to `CO[C@]1(CN2CCN(C3CCC3)CC2)/C=C/C[C@H](C)[C@@H](C)S(=O)(=O)NC(=O)c2ccc3c(c2)N(C[C@@H]2CC[C@H]21)C[C@@]1(CCCc2cc(Cl)ccc21)CO3` [Example 92, (1S,3′R,6′R,7′R,8′E,11′S,12′R)-6-chloro-7′-((4-cyclobutyl-1-piperazinyl)methyl)-7′-methoxy-11′,12′-dimethyl-3,4-dihydro-2H,15′H-spiro[naphthalene-1,22′-[20]oxa[13]thia[1,14]diazatetracyclo [14.7.2.0~3,6~.0~19,24~]pentacosa[8,16,18,24]tetraen]-15′-one 13′,13′-dioxide], the IC50 in experiment [1] (setting [3]) was found to be 0.143 nM; in experiment [2] (setting [4]), 199 nM. In the case of `C[C@@H]1[C@@H](C)C/C=C/[C@](O)(C(F)(F)F)[C@@H]2CC[C@H]2CN2C[C@@]3(CCCc4cc(Cl)ccc43)COc3ccc(cc32)C(=O)NS1(=O)=O` [Example 100046, (1S,3′R,6′R,7′R,8′E,11′S,12′R)-6-chloro-7′-hydroxy-11′,12′-dimethyl-7′-(trifluoromethyl)-3,4-dihydro-2H,15′H-spiro[naphthalene-1,22′-[20]oxa[13]thia[1,14]diazatetracyclo [14.7.2.0~3,6~.0~19,24~]pentacosa[8,16,18,24]tetraen]-15′-one 13′,13′-dioxide], the figures for the IC50 in experiment [1] (setting [5]) and in experiment [2] (setting [6]) were 3.76 nM and 976 nM, respectively. As to `CO[C@@]1(CC(=O)C(C)C)/C=C/C[C@H](C)[C@@H](C)S(=O)(=O)NC(=O)c2ccc3c(c2)N(C[C@@H]2CC[C@H]21)C[C@@]1(CCCc2cc(Cl)ccc21)CO3` [Example 100373, (1S,3′R,6′R,7′S,8′E,11′S,12′R)-6-chloro-7′-methoxy-11′,12′-dimethyl-7′-(3-methyl-2-oxobutyl)-3,4-dihydro-2H,15′H-spiro[naphthalene-1,22′-[20]oxa[13]thia[1,14]diazatetracyclo [14.7.2.0~3,6~.0~19,24~]pentacosa[8,16,18,24]tetraen]-15′-one 13′,13′-dioxide], the IC50 in experiment [1] was 0.318 nM; in experiment [2] (setting [6]) it was 736 nM. `CO[C@@]1(CC(=O)N2CCN(C)C[C@H]2C)/C=C/C[C@H](C)[C@@H](C)S(=O)(=O)NC(=O)c2ccc3c(c2)N(C[C@@H]2CC[C@H]21)C[C@@]1(CCCc2cc(Cl)ccc21)CO3` [Example 100417, (1S,3′R,6′R,7′S,8′E,11′S,12′R)-6-chloro-7′-(2-((2R)-2,4-dimethyl-1-piperazinyl)-2-oxoethyl)-7′-methoxy-11′,12′-dimethyl-3,4-dihydro-2H,15′H-spiro[naphthalene-1,22′-[20]oxa[13]thia[1,14]diazatetracyclo [14.7.2.0~3,6~.0~19,24~]pentacosa[8,16,18,24]tetraen]-15′-one 13′,13′-dioxide]: the IC50 is 0.345 nM in experiment [1] (setting [5]) and 379 nM in experiment [2] (setting [6]). Turning to `CO[C@@]1(CCN(C)C)/C=C/C[C@H](C)[C@@H](C)S(=O)(=O)NC(=O)c2ccc3c(c2)N(C[C@@H]2CC[C@H]21)C[C@@]1(CCCc2cc(Cl)ccc21)CO3` [Example 100393, (1S,3′R,6′R,7′S,8′E,11′S,12′R)-6-chloro-7′-(2-(dimethylamino)ethyl)-7′-methoxy-11′,12′-dimethyl-3,4-dihydro-2H,15′H-spiro[naphthalene-1,22′-[20]oxa[13]thia[1,14]diazatetracyclo [14.7.2.0~3,6~.0~19,24~]pentacosa[8,16,18,24]tetraen]-15′-one 13′,13′-dioxide], the figures for the IC50 in experiment [1] (setting [5]) and in experiment [2] (setting [6]) were 0.164 nM and 211 nM, respectively. As for `CO[C@@]1(CC(C)=O)/C=C/C[C@H](C)[C@@H](C)S(=O)(=O)NC(=O)c2ccc3c(c2)N(C[C@@H]2CC[C@H]21)C[C@@]1(CCCc2cc(Cl)ccc21)CO3` [Example 100446, (1S,3′R,6′R,7′S,8′E,11′S,12′R)-6-chloro-7′-methoxy-11′,12′-dimethyl-7′-(2-oxopropyl)-3,4-dihydro-2H,15′H-spiro[naphthalene-1,22′-[20]oxa[13]thia[1,14]diazatetracyclo [14.7.2.0~3,6~.0~19,24~]pentacosa[8,16,18,24]tetraen]-15′-one 13′,13′-dioxide], the figures for the IC50 in experiment [1] (setting [5]) and in experiment [2] (setting [6]) were 0.126 nM and 345 nM, respectively.

In the case of `CO[C@]1(CN2CC(N3CCOCC3)C2)/C=C/C[C@H](C)[C@@H](C)S(=O)(=O)NC(=O)c2ccc3c(c2)N(C[C@@H]2CC[C@H]21)C[C@@]1(CCCc2cc(Cl)ccc21)CO3` [Example 84, (1S,3′R,6′R,7′R,8′E,11′S,12′R)-6-chloro-7′-methoxy-11′,12′-dimethyl-7′-((3-(4-morpholinyl)-1-azetidinyl)methyl)-3,4-dihydro-2H,15′H-spiro[naphthalene-1,22′-[20]oxa[13]thia[1,14]diazatetracyclo [14.7.2.0~3,6~.0~19,24~]pentacosa[8,16,18,24]tetraen]-15′-one 13′,13′-dioxide], the IC50 in experiment [1] (setting [3]) was determined as 0.106 nM; in experiment [2] (setting [4]) it was 61 nM. As for `COCC[C@@H]1[C@@H](C)C/C=C/[C@](CN2CCN(C(C)C)CC2)(OC)[C@@H]2CC[C@H]2CN2C[C@@]3(CCCc4cc(Cl)ccc43)COc3ccc(nc32)C(=O)NS1(=O)=O` [Example 24, (1S,3′R,6′R,7′S,8′E,11′S,12′R)-6-chloro-7′-methoxy-12′-(2-methoxyethyl)-11′-methyl-7′-((4-(1-methylethyl)-1-piperazinyl)methyl)-3,4-dihydro-2H,15′H-spiro[naphthalene-1,22′-[20]oxa[13]thia[1,14,25]triazatetracyclo [14.7.2.0~3,6~.0~19,24~]pentacosa[8,16,18,24]tetraen]-15′-one 13′,13′-dioxide], the IC50 in experiment [1] (setting [3]) worked out at 0.086 nM; in experiment [2] (setting [4]) it was 35 nM. As for `C[C@@H]1[C@@H](C)C/C=C/[C@@](O)(C(F)F)[C@@H]2CC[C@H]2CN2C[C@@]3(CCCc4cc(Cl)ccc43)COc3ccc(cc32)C(=O)NS1(=O)=O` [Example 100070, (1S,3′R,6′R,7′S,8′E,11′S,12′R)-6-chloro-7′-(difluoromethyl)-7′-hydroxy-11′,12′-dimethyl-3,4-dihydro-2H,15′H-spiro[naphthalene-1,22′-[20]oxa[13]thia[1,14]diazatetracyclo [14.7.2.0~3,6~.0~19,24~]pentacosa[8,16,18,24]tetraen]-15′-one 13′,13′-dioxide], the IC50 in experiment [1] (setting [5]) was determined as 4.85 nM; in experiment [2] (read-out: OPM-2 10% FBS IC50 IP, OPM-2 cells, 10% FBS, 16 h, CellTiter-Glo), 1070 nM. In the case of `CCO[C@]1(CN2CCN(C(C)C)[C@H](C)C2)CCC[C@H](C)[C@@H](CCOC)S(=O)(=O)NC(=O)c2ccc3c(c2)N(C[C@@H]2CC[C@H]21)C[C@@]1(CCCc2cc(Cl)ccc21)CO3` [Example 519, (1S,3′R,6′R,7′R,11′S,12′R)-6-chloro-7′-ethoxy-12′-(2-methoxyethyl)-11′-methyl-7′-(((3R)-3-methyl-4-(2-propanyl)-1-piperazinyl)methyl)-3,4-dihydro-2H, 15′H-spiro[naphthalene-1,22′-[20]oxa[13]thia[1,14]diazatetracyclo[14.7.2.0-3,6˜.0˜19,24˜]pentacosa[16,18,24]trien]-15′-one 13′,13′-dioxide], the IC50 in experiment [1] (setting [3]) is 0.157 nM. `C[C@@]1(O)CCCCCS(=O)(=O)NC(=O)c2ccc3c(c2)N(C[C@@H]2CC[C@H]21)C[C@@]1(CCCc2cc(Cl)ccc21)CO3` [Example 100024, (1S,3′R,6′R,7′R)-6-chloro-7′-hydroxy-7′-methyl-3,4-dihydro-2H,15′H-spiro[naphthalene-1,22′-[20]oxa[13]thia[1,14]diazatetracyclo [14.7.2.0~3,6~.0~19,24~]pentacosa[16,18,24]trien]-15′-one 13′,13′-dioxide]: in experiment [1] (setting [5]), the IC50 was 6.16 nM.
